Read-outs that look alike come from different tables or passages of the source.
Key:
[1] = biological target: Aspergillus terreus ω-transaminase mutant F115L-H210N (parent SEQ ID NO: 1; gene SEQ ID NO: 4) (Aspergillus terreus, UniProt Q0C8G1, D231A/F115L/H210N); assay: Kinetic parameters, transamination (acetophenone formation at 245 nm), F115L-H210N; assay type: biochemical; conditions: phosphate buffer pH 8.0, 0.1 mM PLP
[2] = tested on: Aspergillus terreus ω-transaminase mutant H210N-N245D-E253A-G292D (parent SEQ ID NO: 1; gene SEQ ID NO: 9); assay: Kinetic parameters, transamination (acetophenone formation at 245 nm), H210N-N245D-E253A-G292D; assay type: biochemical; conditions: phosphate buffer pH 8.0, 0.1 mM PLP
[3] = biological target: Aspergillus terreus ω-transaminase mutant F115L-H210N-M150C-M280C (parent SEQ ID NO: 1; gene SEQ ID NO: 3) (Aspergillus terreus, UniProt Q0C8G1, E253A/F115L/H210N/M150C/M280C); assay: Kinetic parameters, transamination (acetophenone formation at 245 nm), F115L-H210N-M150C-M280C; assay type: biochemical; conditions: phosphate buffer pH 8.0, 0.1 mM PLP
[4] = biological target: T1, Aspergillus terreus ω-transaminase, wild type (WT-ATA), SEQ ID NO: 1 (Aspergillus terreus, UniProt Q0C8G1); assay: Kinetic parameters, transamination (acetophenone formation at 245 nm), WT-ATA; conditions: phosphate buffer pH 8.0, 0.1 mM PLP
T1 sequence (Q0C8G1 1-325): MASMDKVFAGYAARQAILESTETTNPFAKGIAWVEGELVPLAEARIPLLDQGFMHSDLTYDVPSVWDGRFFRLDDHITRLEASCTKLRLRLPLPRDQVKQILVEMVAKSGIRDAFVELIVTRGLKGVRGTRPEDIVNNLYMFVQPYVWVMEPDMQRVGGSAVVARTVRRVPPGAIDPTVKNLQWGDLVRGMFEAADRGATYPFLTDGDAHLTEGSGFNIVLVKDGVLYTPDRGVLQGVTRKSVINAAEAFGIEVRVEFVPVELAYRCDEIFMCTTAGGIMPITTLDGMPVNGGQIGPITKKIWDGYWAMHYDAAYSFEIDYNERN

[5] = biological target: Aspergillus terreus ω-transaminase mutant I77L-F115L-E133A-H210N-N245D (parent SEQ ID NO: 1; gene SEQ ID NO: 6) (Aspergillus terreus, UniProt Q0C8G1, D224K/E133A/F115L/H210N/I77L/N245D); assay: Kinetic parameters, transamination (acetophenone formation at 245 nm), I77L-F115L-E133A-H210N-N245D; assay type: biochemical; conditions: phosphate buffer pH 8.0, 0.1 mM PLP
[6] = biological target: Aspergillus terreus ω-transaminase mutant I77L-Q97E-F115L-L118T-E253A-G292D (parent SEQ ID NO: 1; gene SEQ ID NO: 7) (Aspergillus terreus, UniProt Q0C8G1, D224A/E253A/F115L/G292D/I77L/L118T/Q97E); assay: Kinetic parameters, transamination (acetophenone formation at 245 nm), I77L-Q97E-F115L-L118T-E253A-G292D; assay type: biochemical; conditions: phosphate buffer pH 8.0, 0.1 mM PLP
[7] = biological target: Aspergillus terreus ω-transaminase mutant I77L-E133A-N245D-G292D (parent SEQ ID NO: 1; gene SEQ ID NO: 8) (Aspergillus terreus, UniProt Q0C8G1, E133A/G292D/I77L/N245D); assay: Kinetic parameters, transamination (acetophenone formation at 245 nm), I77L-E133A-N245D-G292D; assay type: biochemical; conditions: phosphate buffer pH 8.0, 0.1 mM PLP
[8] = biological target: Aspergillus terreus ω-transaminase mutant F115L-H210N-E253A-I295V (parent SEQ ID NO: 1; gene SEQ ID NO: 5) (Aspergillus terreus, UniProt Q0C8G1); assay: Kinetic parameters, transamination (acetophenone formation at 245 nm), F115L-H210N-E253A-I295V; assay type: biochemical
C[C@@H](N)c1ccccc1 = assay: Kinetic parameters, transamination (acetophenone formation at 245 nm), I77L-E133A-N245D-G292D; assay type: biochemical, Aspergillus terreus; conditions: other: I77L-E133A-N245D-G292D, phosphate buffer pH 8.0, 0.1 mM PLP
CC(=O)C(=O)O = assay: as above; assay type: biochemical, Aspergillus terreus; conditions: other: I77L-E133A-N245D-G292D, phosphate buffer pH 8.0, 0.1 mM PLP
[9] = substrate: CC(=O)C(=O)O; assay: purified protein, by the assay type; conditions: other: WT-ATA, phosphate buffer pH 8.0, 0.1 mM PLP
[10] = phosphate buffer pH 8.0, 0.1 mM PLP

CC(=O)C(=O)O [pyruvate, pyruvic acid]
Kcat^pyruvate [1]: 2.55 ± 0.01 s⁻¹ | kcat/Km^pyruvate [1]: 1710 M⁻¹ s⁻¹ | Kcat^pyruvate [2]: 1.89 ± 0.03 s⁻¹ | kcat/Km^pyruvate [2]: 3010 M⁻¹ s⁻¹ | Kcat^pyruvate [3]: 3.87 ± 0.03 s⁻¹ | kcat/Km^pyruvate [3]: 1450 M⁻¹ s⁻¹ | Kcat^pyruvate [4]: 0.50 ± 0.01 s⁻¹ | kcat/Km^pyruvate [4]: 2220 M⁻¹ s⁻¹ | Kcat^pyruvate [5]: 1.96 ± 0.03 s⁻¹ | kcat/Km^pyruvate [5]: 990 M⁻¹ s⁻¹ | Kcat^pyruvate [6]: 2.76 ± 0.01 s⁻¹ | kcat/Km^pyruvate [6]: 1330 M⁻¹ s⁻¹ | Kcat^pyruvate [7]: 3.05 ± 0.02 s⁻¹ | kcat/Km^pyruvate [7]: 1180 M⁻¹ s⁻¹ | Kcat^pyruvate [8, 10]: 3.17 ± 0.01 s⁻¹ | kcat/Km^pyruvate [8, 10]: 2030 M⁻¹ s⁻¹ | Km ([8]; read-out: Km^pyruvate, phosphate buffer pH 8.0, 0.1 mM PLP): 1560 ± 70 µM

C[C@@H](N)c1ccccc1 [α-MBA, (R)-(+)-α-methylbenzylamine]
Km ([8]; read-out: Km^α-MBA, phosphate buffer pH 8.0, 0.1 mM PLP): 800 ± 30 µM

Aspergillus terreus ω-transaminase mutant I77L-E133A-N245D-G292D (parent SEQ ID NO: 1; gene SEQ ID NO: 8) (Aspergillus terreus NIH2624; E133A/G292D/I77L/N245D)
Km (C[C@@H](N)c1ccccc1): 840 ± 50 µM | Km (CC(=O)C(=O)O): 2590 ± 20 µM

B1: Aspergillus terreus ω-transaminase, wild type (WT-ATA), SEQ ID NO: 1 (Aspergillus terreus NIH2624) (protein)
chain: MASMDKVFAGYAARQAILESTETTNPFAKGIAWVEGELVPLAEARIPLLDQGFMHSDLTYDVPSVWDGRFFRLDDHITRLEASCTKLRLRLPLPRDQVKQILVEMVAKSGIRDAFVELIVTRGLKGVRGTRPEDIVNNLYMFVQPYVWVMEPDMQRVGGSAVVARTVRRVPPGAIDPTVKNLQWGDLVRGMFEAADRGATYPFLTDGDAHLTEGSGFNIVLVKDGVLYTPDRGVLQGVTRKSVINAAEAFGIEVRVEFVPVELAYRCDEIFMCTTAGGIMPITTLDGMPVNGGQIGPITKKIWDGYWAMHYDAAYSFEIDYNERN
Km [9]: 230 ± 20 µM

Source: US12152255B2, “ω-Transaminase mutant obtained by DNA synthetic shuffling combined mutation and use” (priority 2020, dated 2024)
